Source: patent publication US11649255B2, “Indazoles as hematopoietic progenitor kinase 1 (HPK1) inhibitors and methods using same” (1st Biotherapeutics, Inc., priority 2020, dated 2023)

What follows are compounds tested against recombinant human HPK1 (Homo sapiens (Human), UniProt Q92918) (assay: HPK1 kinase assay (ADP-Glo)). Details: 25 μM ATP, MBP substrate.
Type: biochemical
Outline: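 Activity was read as ADP formed, detected by ADP-Glo luminescence after the reaction of 5 ng recombinant human HPK1 with MBP and ATP (stocks 0.5 μg/μl and 25 μM) for 40 min at 30 °C. Buffer was Tris pH 7.5 with MgCl2, BSA and DTT, with compound in 0.5% DMSO. IC50 came from inhibition curves.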

Chain of recombinant human HPK1 (Q92918 whole entry): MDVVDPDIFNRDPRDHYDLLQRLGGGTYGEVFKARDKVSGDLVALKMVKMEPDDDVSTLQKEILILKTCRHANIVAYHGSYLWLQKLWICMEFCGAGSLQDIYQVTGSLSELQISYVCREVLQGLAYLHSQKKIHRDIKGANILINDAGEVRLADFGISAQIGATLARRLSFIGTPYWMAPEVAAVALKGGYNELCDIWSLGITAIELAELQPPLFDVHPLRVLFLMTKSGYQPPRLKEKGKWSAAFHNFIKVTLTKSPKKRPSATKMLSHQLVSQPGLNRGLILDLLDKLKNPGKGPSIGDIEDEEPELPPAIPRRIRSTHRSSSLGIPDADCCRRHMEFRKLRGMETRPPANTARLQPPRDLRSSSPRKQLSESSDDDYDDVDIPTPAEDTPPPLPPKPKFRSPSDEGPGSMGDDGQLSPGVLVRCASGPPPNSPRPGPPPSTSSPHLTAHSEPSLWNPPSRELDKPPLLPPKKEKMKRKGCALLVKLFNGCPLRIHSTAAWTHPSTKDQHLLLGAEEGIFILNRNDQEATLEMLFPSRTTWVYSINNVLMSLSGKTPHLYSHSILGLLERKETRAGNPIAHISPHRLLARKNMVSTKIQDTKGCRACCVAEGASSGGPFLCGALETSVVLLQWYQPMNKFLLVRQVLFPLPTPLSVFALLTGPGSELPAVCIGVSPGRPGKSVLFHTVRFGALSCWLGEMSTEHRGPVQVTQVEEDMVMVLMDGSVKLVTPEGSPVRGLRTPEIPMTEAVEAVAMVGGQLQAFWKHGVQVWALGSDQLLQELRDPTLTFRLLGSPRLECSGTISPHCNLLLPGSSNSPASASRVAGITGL

Row | Structure (SMILES) | IC50 [nM]
1 | CSc1ccc(-c2ccc3nc(NC(=O)[C@@H]4C[C@@H]4F)sc3n2)c2cn[nH]c12 [Example 212, (1S,2S)-2-fluoro-N-(5-(7-(methylthio)-1H-indazol-4-yl)thiazolo[5,4-b]pyridin-2-yl)cyclopropane-1-carboxamide] | > 1000
2 | Cc1c(F)c(OC(F)(F)F)c2[nH]ncc2c1-c1ccc2nc(NC(=O)[C@@H]3C[C@@H]3F)sc2n1 [Example 213, (1S,2S)-2-fluoro-N-(5-(6-fluoro-5-methyl-7-(trifluoromethoxy)-1H-indazol-4-yl)thiazolo[5,4-b]pyridin-2-yl)cyclopropane-1-carboxamide] | > 1000
3 | CN(C)c1c(F)cc(-c2ccc3nc(NC(=O)[C@@H]4C[C@@H]4F)sc3n2)c2cn[nH]c12 [Example 214, (1S,2S)-N-(5-(7-(dimethylamino)-6-fluoro-1H-indazol-4-yl)thiazolo[5,4-b]pyridin-2-yl)-2-fluorocyclopropane-1-carboxamide] | > 1000
4 | O=C(Nc1nc2ccc(-c3cc(F)c(OC(F)(F)F)c4[nH]ncc34)nc2s1)[C@@H]1C[C@@H]1F [Example 215, (1S,2S)-2-fluoro-N-(5-(6-fluoro-7-(trifluoromethoxy)-1H-indazol-4-yl)thiazolo[5,4-b]pyridin-2-yl)cyclopropane-1-carboxamide] | > 1000
5 | CN(C)c1ccc(-c2ccc3nc(NC(=O)[C@@H]4C[C@@H]4F)sc3n2)c2cn[nH]c12 [Example 216, (1S,2S)-N-(5-(7-(dimethylamino)-1H-indazol-4-yl)thiazolo[5,4-b]pyridin-2-yl)-2-fluorocyclopropane-1-carboxamide] | > 1000
6 | CSc1c(F)cc2[nH]ncc2c1-c1cc2sc(NC(=O)[C@@H]3C[C@@H]3F)nc2cn1 [Example 219, (1S,2S)-2-fluoro-N-(6-(6-fluoro-5-(methylthio)-1H-indazol-4-yl)thiazolo[4,5-c]pyridin-2-yl)cyclopropane-1-carboxamide] | 101 to 500
7 | C[S+]([O-])c1c(F)cc2[nH]ncc2c1-c1cc2sc(NC(=O)[C@@H]3C[C@@H]3F)nc2cn1 (stereo partly drawn) [Example 220, (1S,2S)-2-fluoro-N-(6-(6-fluoro-5-(methylsulfinyl)-1H-indazol-4-yl)thiazolo[4,5-c]pyridin-2-yl)cyclopropane-1-carboxamide] | > 1000
8 | Cc1ccc2[nH]ncc2c1-c1ccc2nc(NC(=O)[C@@H]3C[C@@H]3F)cn2c1 [Example 221, (1S,2S)-2-fluoro-N-(6-(5-methyl-1H-indazol-4-yl)imidazo[1,2-a]pyridin-2-yl)cyclopropane-1-carboxamide] | 101 to 500
9 | O=C(Nc1cn2cc(-c3cccc4[nH]ncc34)ccc2n1)[C@@H]1C[C@@H]1F [Example 222, (1S,2S)-N-(6-(1H-indazol-4-yl)imidazo[1,2-a]pyridin-2-yl)-2-fluorocyclopropane-1-carboxamide] | 501 to 1000
10 | COc1ccc2[nH]ncc2c1-c1ccc2nc(NC(=O)C3CC3)cn2c1 [Example 224, N-(6-(5-methoxy-1H-indazol-4-yl)imidazo[1,2-a]pyridin-2-yl)cyclopropanecarboxamide] | 101 to 500
11 | Nc1ccc2[nH]ncc2c1-c1ccc2nc(NC(=O)C3CC3)cn2c1 [Example 225, N-(6-(5-amino-1H-indazol-4-yl)imidazo[1,2-a]pyridin-2-yl)cyclopropanecarboxamide] | > 1000
12 | Nc1c(F)cc2[nH]ncc2c1-c1ccc2nc(NC(=O)C3CC3)cn2c1 [Example 227, N-(6-(5-amino-6-fluoro-1H-indazol-4-yl)imidazo[1,2-a]pyridin-2-yl)cyclopropanecarboxamide] | > 1000
13 | O=C(Nc1cn2cc(-c3c(Br)ccc4[nH]ncc34)ccc2n1)C1CC1 [Example 228, N-(6-(5-bromo-1H-indazol-4-yl)imidazo[1,2-a]pyridin-2-yl)cyclopropanecarboxamide] | > 1000
14 | CN(C)c1ccc2[nH]ncc2c1-c1ccc2nc(NC(=O)C3CC3)cn2c1 [Example 230, N-(6-(5-(dimethylamino)-1H-indazol-4-yl)imidazo[1,2-a]pyridin-2-yl)cyclopropanecarboxamide] | > 1000
15 | O=C(Nc1cn2cc(-c3c(Br)c(F)cc4[nH]ncc34)ccc2n1)C1CC1 [Example 231, N-(6-(5-bromo-6-fluoro-1H-indazol-4-yl)imidazo[1,2-a]pyridin-2-yl)cyclopropanecarboxamide] | > 1000
16 | O=C(Nc1cn2cc(-c3c(CO)ccc4[nH]ncc34)ccc2n1)C1CC1 [Example 233, N-(6-(5-(hydroxymethyl)-1H-indazol-4-yl)imidazo[1,2-a]pyridin-2-yl)cyclopropanecarboxamide] | 501 to 1000
17 | CCc1ccc2[nH]ncc2c1-c1ccc2nc(NC(=O)C3CC3)cn2c1 [Example 234, N-(6-(5-ethyl-1H-indazol-4-yl)imidazo[1,2-a]pyridin-2-yl)cyclopropanecarboxamide] | > 1000
18 | Nc1c(Cl)cc2[nH]ncc2c1-c1ccc2nc(NC(=O)C3CC3)cn2c1 [Example 240, N-(6-(5-amino-6-chloro-1H-indazol-4-yl)imidazo[1,2-a]pyridin-2-yl)cyclopropanecarboxamide] | 501 to 1000
19 | O=C(Nc1cn2cc(-c3c(C4CC4)c(F)cc4[nH]ncc34)ccc2n1)C1CC1 [Example 241, N-(6-(5-cyclopropyl-6-fluoro-1H-indazol-4-yl)imidazo[1,2-a]pyridin-2-yl)cyclopropanecarboxamide] | > 1000
20 | O=C(Nc1cn2cc(-c3c(Cl)c(F)cc4[nH]ncc34)ccc2n1)C1CC1 [Example 242, N-(6-(5-chloro-6-fluoro-1H-indazol-4-yl)imidazo[1,2-a]pyridin-2-yl)cyclopropanecarboxamide] | 101 to 500
21 | O=C(Nc1cn2cc(-c3c(C4CC4)ccc4[nH]ncc34)ccc2n1)C1CC1 [Example 244, N-(6-(5-cyclopropyl-1H-indazol-4-yl)imidazo[1,2-a]pyridin-2-yl)cyclopropanecarboxamide] | 101 to 500

Continued, values first:

Row | IC50 [nM] | Structure (SMILES)
22 | < 100 | CCc1c(F)c(C(F)(F)F)c2[nH]ncc2c1-c1ccc2nc(NC(=O)[C@@H]3C[C@@H]3F)sc2n1 [Example 210, (1S,2S)-N-(5-(5-ethyl-6-fluoro-7-(trifluoromethyl)-1H-indazol-4-yl)thiazolo[5,4-b]pyridin-2-yl)-2-fluorocyclopropane-1-carboxamide]
23 | < 100 | Cc1c(F)c(Cl)c(-c2ccc3nc(NC(=O)[C@@H]4C[C@@H]4F)sc3n2)c2cn[nH]c12 [Example 211, (1S,2S)-N-(5-(5-chloro-6-fluoro-7-methyl-1H-indazol-4-yl)thiazolo[5,4-b]pyridin-2-yl)-2-fluorocyclopropane-1-carboxamide]
24 | < 100 | Cc1c(F)c(C(F)F)c2[nH]ncc2c1-c1ccc2nc(NC(=O)[C@@H]3C[C@@H]3F)sc2n1 [Example 217, (1S,2S)-N-(5-(7-(difluoromethyl)-6-fluoro-5-methyl-1H-indazol-4-yl)thiazolo[5,4-b]pyridin-2-yl)-2-fluorocyclopropane-1-carboxamide]
25 | < 100 | CCN(C)c1c(F)c(SC)c(-c2ccc3nc(NC(=O)[C@@H]4C[C@@H]4F)sc3n2)c2cn[nH]c12 [Example 218, (1S,2S)-N-(5-(7-(ethyl(methyl)amino)-6-fluoro-5-(methylthio)-1H-indazol-4-yl)thiazolo[5,4-b]pyridin-2-yl)-2-fluorocyclopropane-1-carboxamide]
26 | < 100 | O=C(Nc1cn2cc(-c3c(Cl)ccc4[nH]ncc34)ccc2n1)C1CC1 [Example 223, N-(6-(5-chloro-1H-indazol-4-yl)imidazo[1,2-a]pyridin-2-yl)cyclopropanecarboxamide]
27 | < 100 | O=C(Nc1cn2cc(-c3c(C(F)(F)F)ccc4[nH]ncc34)ccc2n1)C1CC1 [Example 226, N-(6-(5-(trifluoromethyl)-1H-indazol-4-yl)imidazo[1,2-a]pyridin-2-yl)cyclopropanecarboxamide]
28 | < 100 | CNc1ccc2[nH]ncc2c1-c1ccc2nc(NC(=O)C3CC3)cn2c1 [Example 229, N-(6-(5-(methylamino)-1H-indazol-4-yl)imidazo[1,2-a]pyridin-2-yl)cyclopropanecarboxamide]
29 | < 100 | N#Cc1ccc2[nH]ncc2c1-c1ccc2nc(NC(=O)C3CC3)cn2c1 [Example 232, N-(6-(5-cyano-1H-indazol-4-yl)imidazo[1,2-a]pyridin-2-yl)cyclopropanecarboxamide]
30 | < 100 | C=Cc1c(F)cc2[nH]ncc2c1-c1ccc2nc(NC(=O)C3CC3)cn2c1 [Example 235, N-(6-(6-fluoro-5-vinyl-1H-indazol-4-yl)imidazo[1,2-a]pyridin-2-yl)cyclopropanecarboxamide]
31 | < 100 | O=C(Nc1cn2cc(-c3c(C(F)(F)F)ccc4[nH]ncc34)ccc2n1)[C@@H]1C[C@@H]1F [Example 236, (1S,2S)-2-fluoro-N-(6-(5-(trifluoromethyl)-1H-indazol-4-yl)imidazo[1,2-a]pyridin-2-yl)cyclopropane-1-carboxamide]
32 | < 100 | O=C(Nc1cn2cc(-c3c(Cl)ccc4[nH]ncc34)ccc2n1)[C@@H]1C[C@@H]1F [Example 237, (1S,2S)-N-(6-(5-chloro-1H-indazol-4-yl)imidazo[1,2-a]pyridin-2-yl)-2-fluorocyclopropane-1-carboxamide]
33 | < 100 | O=C(Nc1cn2cc(-c3c(Br)ccc4[nH]ncc34)ccc2n1)[C@@H]1C[C@@H]1F [Example 238, (1S,2S)-N-(6-(5-bromo-1H-indazol-4-yl)imidazo[1,2-a]pyridin-2-yl)-2-fluorocyclopropane-1-carboxamide]
34 | < 100 | CC(=O)c1ccc2[nH]ncc2c1-c1ccc2nc(NC(=O)C3CC3)cn2c1 [Example 239, N-(6-(5-acetyl-1H-indazol-4-yl)imidazo[1,2-a]pyridin-2-yl)cyclopropanecarboxamide]
35 | < 100 | O=C(Nc1cn2cc(-c3c(Cl)c(F)cc4[nH]ncc34)ccc2n1)[C@@H]1C[C@@H]1F [Example 243, (1S,2S)-N-(6-(5-chloro-6-fluoro-1H-indazol-4-yl)imidazo[1,2-a]pyridin-2-yl)-2-fluorocyclopropane-1-carboxamide]
